Data on 18 compounds can be found in PMC5538589, “Discovery of Novel Allopurinol Derivatives with Anticancer Activity and Attenuated Xanthine Oxidase Inhibition” (Molecules, 2016).

Series [1] has as its system BEL-7402. Put plainly: MTT cell viability assay, human hepatoma carcinoma BEL-7402 cells. The format is cell-based. The settings on record: 24 h treatment, concentration inhibiting cancer cell replication by 50%, tested up to 100 μM. In general terms: Formazan colour is commonly taken as a measure of viable cells.
Series [2] concerns SMMC-7221. Nature of the series: MTT cell viability assay, human hepatoma carcinoma SMMC-7221 cells. To be noted: read-out: IC50 SMMC-7221. In kind it is cell-based.
The next series has as its system MDA-MB-231 cells. Nature of the series: Cell survival/growth assay (Coulter cell count), MDA-MB-231 cells.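 As to all read-outs here: cells grown in DMEM with 5% FBS, vehicle control was an equal volume of DMSO.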 The format is cell-based. The settings on record: 5 days, treated/vehicle cell number ratio; for viability at 1 µM / viability at 10 µM: Homo sapiens, 120 h; for viability at 1 µM: read-out: Survival Rate (%) 1 μM; for viability at 10 µM: read-out: Survival Rate (%) 10 μM.

Series [3] relates to MCF-10A cells. Nature of the series: Cytotoxicity towards normal MCF-10A mammary epithelial cells (Cell Titer-Glo). To be noted: human, MCF-10A normal mammary epithelial cells.
In series [4] the test system is BEL-7402. Also noted: method as in PMID 23851116. To be noted: value from earlier study; cited from earlier work.
For series [5], the system named is SMMC-7221. Set-up: method as in PMID 23851116. The settings on record: value from earlier study; cited from earlier work.
Series [6] has as its system MCF-10A cells. Put plainly: in vitro. The settings on record: human.
For another series, the target named is xanthine oxidase (XOD) (Bos taurus, UniProt P80457). To be noted: test concentrations 5, 10, 15, 25 μM; allopurinol positive control.
The subject of series [7] is normal cells versus tumor types. Set-up: method as in PMID 12213470, PMID 15217612. The settings on record: normal cells more resistant to anti-cancer effects; cited from earlier work.
Where [8] appears, read: SMMC-7221, MTT, 24 h treatment, concentration inhibiting cancer cell replication by 50%, tested up to 100 μM.

Like-named read-outs stand apart in the source and are kept apart here.

Chain of xanthine oxidase (XOD) (P80457 2-1332 limits assumed): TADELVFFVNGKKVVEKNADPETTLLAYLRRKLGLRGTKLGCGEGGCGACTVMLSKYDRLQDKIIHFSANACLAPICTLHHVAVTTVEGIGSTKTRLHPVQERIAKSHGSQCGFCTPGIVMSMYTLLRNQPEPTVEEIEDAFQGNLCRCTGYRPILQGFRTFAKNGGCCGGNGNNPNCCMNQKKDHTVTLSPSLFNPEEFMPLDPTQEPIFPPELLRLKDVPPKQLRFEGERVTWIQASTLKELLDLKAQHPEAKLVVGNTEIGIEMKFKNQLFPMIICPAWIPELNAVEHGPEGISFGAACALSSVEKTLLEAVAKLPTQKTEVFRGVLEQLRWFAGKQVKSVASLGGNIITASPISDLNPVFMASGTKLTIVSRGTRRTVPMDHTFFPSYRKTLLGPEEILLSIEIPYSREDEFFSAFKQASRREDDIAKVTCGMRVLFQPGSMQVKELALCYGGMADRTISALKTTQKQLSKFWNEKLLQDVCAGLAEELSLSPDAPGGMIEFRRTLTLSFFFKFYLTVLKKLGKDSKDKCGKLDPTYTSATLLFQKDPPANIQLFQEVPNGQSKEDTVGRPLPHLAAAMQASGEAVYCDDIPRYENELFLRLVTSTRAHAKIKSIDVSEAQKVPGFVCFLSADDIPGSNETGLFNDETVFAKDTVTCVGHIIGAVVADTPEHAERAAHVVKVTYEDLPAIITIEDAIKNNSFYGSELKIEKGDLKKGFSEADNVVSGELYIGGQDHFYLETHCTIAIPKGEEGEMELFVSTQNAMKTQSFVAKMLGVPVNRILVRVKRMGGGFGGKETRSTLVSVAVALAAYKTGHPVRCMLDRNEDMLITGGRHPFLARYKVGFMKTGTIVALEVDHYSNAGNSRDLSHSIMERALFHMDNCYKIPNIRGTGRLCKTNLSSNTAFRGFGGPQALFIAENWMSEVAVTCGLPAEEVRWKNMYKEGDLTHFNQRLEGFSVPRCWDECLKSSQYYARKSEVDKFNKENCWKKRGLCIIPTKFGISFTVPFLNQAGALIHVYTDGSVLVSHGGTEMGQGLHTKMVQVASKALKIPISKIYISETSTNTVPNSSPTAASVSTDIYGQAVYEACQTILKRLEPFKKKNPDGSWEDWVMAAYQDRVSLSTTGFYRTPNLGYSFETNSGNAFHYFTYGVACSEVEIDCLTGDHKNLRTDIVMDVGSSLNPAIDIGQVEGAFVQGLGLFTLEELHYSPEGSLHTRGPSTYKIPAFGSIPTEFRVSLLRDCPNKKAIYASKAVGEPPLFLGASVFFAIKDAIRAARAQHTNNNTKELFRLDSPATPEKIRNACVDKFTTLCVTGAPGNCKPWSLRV

Consider `NCCNc1ncnc2c1cnn2Cc1ccccc1` [Compound 7, N1-(1-Benzyl-1H/-pyrazolo[3,4-d]pyrimidin-4-yl)ethane-1,2-diamine], for which the IC50 in the series on BEL-7402 [1] and in the series with SMMC-7221 [2] (setting [8]) was over 100 µM in each case. The viability at 1 µM in the series on MDA-MB-231 cells (MDA-MB-231, 1 μM) is 81.4 ± 7.2%. The viability at 10 µM in the series on MDA-MB-231 cells (MDA-MB-231, 10 μM) was found to be 57.5 ± 1%.

In the case of `O=S(=O)(NCCNc1ncnc2c1cnn2Cc1ccccc1)c1ccc(Br)cc1` [Compound 8c, N-(2-((1-benzyl-1H-pyrazolo[3,4-d]pyrimidin-4-yl)amino)ethyl)-4-bromobenzenesulfonamide], the IC50 in the series on BEL-7402 [1] and in the series on SMMC-7221 [2] (setting [8]) was over 100 µM in each case. Besides, in the series with MDA-MB-231 cells (MDA-MB-231, 1 μM), the viability at 1 µM came to 105 ± 8.6%. For the same compound, the viability at 10 µM in the series on MDA-MB-231 cells (MDA-MB-231, 10 μM) was determined as 78.5 ± 3.9%.

`Clc1ncnc2c1cnn2Cc1ccccc1` [Compound 6, 1-Benzyl-4-chloro-1H-pyrazolo[3,4-d]pyrimidine] yielded a melting point of 62 to 63 °C. The IC50 in the series with BEL-7402 [1] is over 100 µM. Moreover, the IC50 with SMMC-7221 [2] (setting [8]) was over 100 µM. Besides, in the series with MDA-MB-231 cells (MDA-MB-231, 1 μM), the viability at 1 µM is 77.6 ± 9.1%. In addition, the viability at 10 µM in the series on MDA-MB-231 cells (MDA-MB-231, 10 μM) came to 75.7 ± 1.5%.

As to `CCn1ncc2c(NNC(C)=O)ncnc21` [Compound 5e, N′-(1-Ethyl-1H-pyrazolo[3,4-d]pyrimidin-4-yl)acetohydrazide], the IC50 in the series on BEL-7402 [1] and in the series with SMMC-7221 [2] (setting [8]) was over 100 µM each time. Further, the viability at 1 µM in the series with MDA-MB-231 cells (MDA-MB-231, 1 μM) was determined as 94.8 ± 0.5%. For the same compound, the viability at 10 µM with MDA-MB-231 cells (MDA-MB-231, 10 μM) worked out at 61.3 ± 1%. In the series on MCF-10A cells [3], this compound registered an IC50 at 72 h of 20.2 ± 0.81 µM.

Take `CCn1ncc2c(NNS(=O)(=O)c3ccc(Br)cc3)ncnc21` [Compound 5d, 4-Bromo-N′-(1-ethyl-1H-pyrazolo[3,4-d]pyrimidin-4-yl)benzenesulfonohydrazide]: the melting point was 194 to 195 °C. In the series on BEL-7402 [1], this compound showed an IC50 of over 100 µM. Besides, the IC50 with SMMC-7221 [2] (setting [8]) is over 100 µM. Also, the viability at 1 µM in the series on MDA-MB-231 cells (MDA-MB-231, 1 μM) was 80.5 ± 2%. In addition, the viability at 10 µM with MDA-MB-231 cells (MDA-MB-231, 10 μM) was found to be 70.9 ± 1%.

Take `CCn1ncc2c(NNC(=O)CCl)ncnc21` [Compound 5g, 2-Chloro-N′-(1-ethyl-1H-pyrazolo[3,4-d]pyrimidin-4-yl)acetohydrazide]: the melting point was in the range of 202 to 204 °C. Further, the IC50 in the series with BEL-7402 [1] was over 100 µM. The IC50 in the series with SMMC-7221 [2] (setting [8]) was over 100 µM. Also, the viability at 1 µM with MDA-MB-231 cells (MDA-MB-231, 1 μM) amounted to 105 ± 4.8%. Further, in the series with MDA-MB-231 cells (MDA-MB-231, 10 μM), the viability at 10 µM turned out to be 105 ± 2.9%. The same compound yielded an IC50 at 72 h with MCF-10A cells [3] of 23.3 ± 0.71 µM.

Compound `CCn1ncc2c(NNS(=O)(=O)c3ccc([N+](=O)[O-])cc3)ncnc21` [Compound 5b, N′-(1-Ethyl-1H-pyrazolo[3,4-d]pyrimidin-4-yl)-4-nitrobenzenesulfonohydrazide] returned a melting point of 194 to 195 °C. Besides, the IC50 with BEL-7402 [1] was over 100 µM. In addition, the IC50 in the series on SMMC-7221 [2] (setting [8]) is over 100 µM. The viability at 1 µM with MDA-MB-231 cells (MDA-MB-231, 1 μM) worked out at 92.9 ± 1.5%. Further, the viability at 10 µM with MDA-MB-231 cells (MDA-MB-231, 10 μM) was 68 ± 2.4%.

In the case of `CCOC(=O)Cn1ncc2c(Nc3ccc(NC(=O)CCl)cc3)ncnc21` [Compound 1], the viability at 1 µM with MDA-MB-231 cells (MDA-MB-231, 1 μM) amounted to 40.2 ± 3.9%. In addition, the viability at 10 µM in the series on MDA-MB-231 cells (MDA-MB-231, 10 μM) turned out to be 1 ± 0.6%. The results for the half-inhibitory concentration (IC50) with BEL-7402 [4] and in the series on SMMC-7221 [5] were 18.7 µM and 9.03 µM, respectively. Further, in the series with MCF-10A cells [3], the IC50 at 72 h came out at 5.59 ± 0.27 µM.

For the compound `O=[N+]([O-])c1ccc(S(=O)(=O)NCCNc2ncnc3c2cnn3Cc2ccccc2)cc1` [Compound 8b, N-(2-((1-Benzyl-1H-pyrazolo[3,4-d]pyrimidin-4-yl)amino)ethyl)-4-nitrobenzenesulfonamide], the IC50 in the series on BEL-7402 [1] is over 100 µM; in the series on SMMC-7221 [2] (setting [8]), 81.46 ± 0.78 µM. Besides, the viability at 1 µM in the series on MDA-MB-231 cells (MDA-MB-231, 1 μM) worked out at 75.7 ± 2.4%. Also, the viability at 10 µM in the series on MDA-MB-231 cells (MDA-MB-231, 10 μM) stood at 71.8 ± 8.5%.

`CCn1ncc2c(N(NC(=O)c3ccccc3)C(=O)c3ccccc3)ncnc21` [Compound 5f, N′-Benzoyl-N′-(1-ethyl-1H-pyrazolo[3,4-d]pyrimidin-4-yl)benzohydrazide] displayed a melting point of 144 to 146 °C. Besides, the IC50 with BEL-7402 [1] is over 100 µM. Moreover, the IC50 in the series on SMMC-7221 [2] (setting [8]) is over 100 µM. The viability at 1 µM in the series with MDA-MB-231 cells (MDA-MB-231, 1 μM) amounted to 102 ± 11%. The viability at 10 µM in the series with MDA-MB-231 cells (MDA-MB-231, 10 μM) was 88.1 ± 1%.

For the compound `CCn1ncc2c(NNS(=O)(=O)c3ccccc3)ncnc21` [Compound 5c, N′-(1-Ethyl-1H-pyrazolo[3,4-d]pyrimidin-4-yl)benzenesulfonohydrazide], the melting point was 194 to 195 °C. In addition, the IC50 with BEL-7402 [1] was over 100 µM. Also, the IC50 in the series with SMMC-7221 [2] (setting [8]) is over 100 µM. Besides, the viability at 1 µM in the series with MDA-MB-231 cells (MDA-MB-231, 1 μM) is 75.7 ± 11%. Further, in the series with MDA-MB-231 cells (MDA-MB-231, 10 μM), the viability at 10 µM was determined as 74.7 ± 0.1%.

In the case of `C=CCNC1=C2C[C@@H](C)C[C@H](OC)[C@H](O)[C@@H](C)/C=C(\C)[C@H](OC(N)=O)[C@@H](OC)/C=C\C=C(/C)C(=O)NC(=CC1=O)C2=O` [Compound 17-AAG, 17-N-allylamino-17-demethoxy geldanamycin, reference compound], the IC50 in the series with BEL-7402 [1] was 12.4 ± 0.1 µM; in the series with SMMC-7221 [2] (setting [8]), 9.85 ± 0.08 µM. Moreover, the viability at 1 µM with MDA-MB-231 cells (MDA-MB-231, 1 μM) came to 6.7 ± 0.5%. The viability at 10 µM with MDA-MB-231 cells (MDA-MB-231, 10 μM) is 4.8 ± 0.5%. The same compound gave an IC50 at 72 h in the series with MCF-10A cells [6] of 0.09 ± 0.01 µM.

On to `CCn1ncc2c(NN)ncnc21` [Compound 4, 1-Ethyl-4-hydrazinyl-1H-pyrazolo[3,4-d]pyrimidine], for which the IC50 in the series on BEL-7402 [1] was 25.5 ± 0.4 µM. In addition, the IC50 in the series on SMMC-7221 [2] (SMMC-7221, 24 h) was determined as 35.2 ± 0.4 µM. Besides, in the series on MDA-MB-231 cells (MDA-MB-231, 1 μM), the viability at 1 µM was found to be 66.1% and the “Survival Rate (%) 1 μM” value is recorded as 66.1 ± 0.5%. In the series on MDA-MB-231 cells (MDA-MB-231, 10 μM), the viability at 10 µM is 27.8% and the “Survival Rate (%) 10 μM” value is 27.8 ± 2.4%. In the series with MCF-10A cells [3], this compound yielded an IC50 at 72 h of 17.4 ± 0.69 µM.

As to `Oc1ncnc2[nH]ncc12` [allopurinol, 4-hydroxyl-1H-pyrazolo[3,4-d]pyrimidine], the viability at 1 µM in the series with MDA-MB-231 cells (MDA-MB-231, 1 μM) amounted to 84.3 ± 7.7%. Besides, the viability at 10 µM in the series on MDA-MB-231 cells (MDA-MB-231, 10 μM) worked out at 51.7 ± 6.7%. Moreover, the “XOD inhibitory activity (in words)” value at xanthine oxidase (XOD) is “strong inhibitor of XOD”.

Consider `CCn1ncc2c(NNS(=O)(=O)c3ccc(C)cc3)ncnc21` [Compound 5a, N′-(1-Ethyl-1H-pyrazolo[3,4-d]pyrimidin-4-yl)-4-methylbenzenesulfonohydrazide], for which the melting point lay in the range of 186 to 187 °C. This compound also showed an IC50 in the series on BEL-7402 [1] of over 100 µM. Besides, the IC50 in the series on SMMC-7221 [2] (setting [8]) was over 100 µM. Also, in the series with MDA-MB-231 cells (MDA-MB-231, 1 μM), the viability at 1 µM was found to be 89.1 ± 1.5%. Further, the viability at 10 µM in the series on MDA-MB-231 cells (MDA-MB-231, 10 μM) is 72.8 ± 3.9%.

On to `O=S(=O)(NCCNc1ncnc2c1cnn2Cc1ccccc1)c1ccccc1` [Compound 8a, N-(2-((1-Benzyl-1H-pyrazolo[3,4-d]pyrimidin-4-yl)amino)ethyl)benzenesulfonamide], for which the IC50 is 66.61 ± 0.62 µM in the series with BEL-7402 [1] and over 100 µM in the series with SMMC-7221 [2] (setting [8]). For the same compound, the viability at 10 µM in the series with MDA-MB-231 cells (MDA-MB-231, 10 μM) is 58.4 ± 2.4%.

Consider `C#CCCCn1c(Cc2cc(OC)c(OC)c(OC)c2Cl)nc2c(N)nc(F)nc21` [PU24FCl], for which, in series [7], the “Resistance of normal cells relative to tumor cells” value is given as 10- to 50 fold.

Regarding `CCn1ncc2c(Cl)ncnc21` [Compound 3, 4-Chloro-1-ethyl-1H-pyrazolo[3,4-d]pyrimidine], the melting point lay in the range of 76 to 77 °C. In the series with BEL-7402 [1], the IC50 was over 100 µM. For the same compound, the IC50 in the series on SMMC-7221 [2] (setting [8]) is over 100 µM. Also, the viability at 1 µM in the series with MDA-MB-231 cells (MDA-MB-231, 1 μM) is 86.2 ± 8.6%. Besides, in the series on MDA-MB-231 cells (MDA-MB-231, 10 μM), the viability at 10 µM was determined as 67 ± 4.8%.

What is called IC50 is the concentration needed to halve the response being measured. Usually melting point stands for the temperature, or range, at which the solid turns liquid.
